# Assay results reported in US20100016156A1, “Pesticidal Mixtures” (BASF SE, priority 2007, published 2010).
# Columns and labels:
# [1] = system: Blumeria graminis f. sp. tritici; experiment: Control of powdery mildew on wheat (protective spray, greenhouse); type: in vivo; settings: 7 days after inoculation, untreated 70% infection
# Description: Preparation: The spray solutions were prepared in several steps:
# A stock solution was prepared: a mixture of acetone and/or DMSO and the wetting agent/emulsifier Uniperol, which is based on ethoxylated alkylphenoles, in a relation (volume) solvent-emulsifier of 99 to 1 was added to 25 mg of the compound to give a total of 10 ml. Water was then added to total volume of 100 ml.
# This stock solution was diluted with the described solvent-emulsifier-water mixture to the given concentration.
# The first fully developed leaves of pot grown wheat were sprayed to run-off with an aqueous suspension, containing the concentration of active ingredient or their mixture mentioned in the table below. […] After cultivation in the greenhouse for 7 days at 22-26° C. and a relative humidity between 60 to 90% the extent of fungal attack on the leaves was visually assessed as % diseased leaf area.
# The visually determined percentages of infected leaf areas were converted into efficacies in % of the untreated control:
# The efficacy (E) is calculated as follows using Abbot's formula: […]
# The expected efficacies of active compound combinations were determined using Colby's formula (Colby, S. R. “Calculating synergistic and antagonistic responses of herbicide combinations”, Weeds, 15, 20-22, 1967) and compared with the observed efficacies. […]
# Pyrenophora teres = experiment: Control of net blotch on barley (protective spray, greenhouse); type: in vivo, Pyrenophora (syn. Drechslera) teres; settings: 6 days after inoculation, untreated 70% infection
# Description: Preparation: The spray solutions were prepared in several steps: A stock solution was prepared: a mixture of acetone and/or DMSO and the wetting agent/emulsifier Uniperol, which is based on ethoxylated alkylphenoles, in a relation (volume) solvent-emulsifier of 99 to 1 was added to 25 mg of the compound to give a total of 10 ml. Water was then added to total volume of 100 ml. This stock solution was diluted with the described solvent-emulsifier-water mixture to the given concentration. The first fully developed leaves of pot grown barley plants were sprayed to run-off with an aqueous suspension, containing the concentration of active ingredient or their mentioned in the table below. The next day the treated plants were inoculated with an aqueous spore suspension of Pyrenophora (syn. Drechslera) teres. Then the trial plants were immediately transferred to a humid chamber in the greenhouse. After 6 days of cultivation at 20-24° C. and a relative humidity close to 70%, the extent of fungal attack on the leaves was visually assessed as % leaf area. Evaluation was carried out analogously to example 1.
Structure (SMILES),Efficacy in % of the untreated control ([1]; 0.25 ppm in spray liquor) [%],Efficacy in % of the untreated control (Pyrenophora teres; 4 ppm in spray liquor) [%],Efficacy in % of the untreated control (Pyrenophora teres; 16 ppm in spray liquor) [%],Efficacy in % of the untreated control ([1]; 0.063 ppm in spray liquor) [%],Efficacy in % of the untreated control (Pyrenophora teres; 0.25 ppm in spray liquor) [%]
"CN/C(=N\[N+](=O)[O-])NCc1cnc(Cl)s1 [Clothianidine, (E)-1-(2-chloro-1,3-thiazol-5-ylmethyl)-3-methyl-2-nitroguanidine]",0,0,0,–,–
"CO/N=C(/C1=NOCCO1)c1ccccc1Oc1ncnc(Oc2ccccc2Cl)c1F [Fluoxastrobin, (E)-{2-[6-(2-chlorophenoxy)-5-fluoropyrimidin-4-yloxy]phenyl}(5,6-dihydro-1,4,2-dioxazin-3-yl)methanone O-methyloxime]",–,–,–,0,0
